Measured values published in US20190077856A1, “METHOD OF TREATING DISEASES USING KINASE MODULATORS” (Memorial Sloan Kettering Cancer Center, priority 2016, published 2019).

What was measured:
pERK = assay: Titration of MEK inhibition by western blot for pERK and ERK; type: cell-based, human; settings: JMN and Meso34 cells; time=1 hour
Source text: (§1) It was hypothesized that the inhibition of the MAP kinase pathway might act on other components of the antigen presentation machinery in addition to MHC-I molecules, thus allowing increased epitope expression in the more abundant cell surface HLA molecules.

SK-MEL-5 = assay: ADCC assay (51Cr release) with TCR mimic mAb Pr20m (PRAME) after trametinib; type: cell-based, human
Method: (§2) Cells were incubated for 72 hours with either vehicle control or trametinib and subsequently exposed to either isotype antibody or ESKM in ADCC assay. FIG. 3B depicts an ADCC assay on Meso34 (human mesothelioma). The experimental setup was similar to FIG. 3A. FIG. 3C depicts an ADCC assay on SKMEL5 (human melanoma) using TCRm mAb PRAME against the PRAME epitope; the experimental setup was similar to FIG. 3A. FIG. 3D: B16F10 cells were exposed to pmel-1 (gp100) specific TCR T-cells for 24 hours, then killing was assessed using a clonogenic assay described previously (Budhu et al. 2010, J Exp Med 207:223-235)
(§3) ADCC: The HLA-A*02:01 positive mesothelioma cell lines JMN and Meso34, along with the melanoma cell line SK-MELS were used in the ADCC assay as a target (May et al. 2007, Clin Cancer Res 13:4547-4555) . Antibodies ESKM (Veomett et al., 2014, Clin Cancer Res 20(15):4036-4046), PRAME, or its isotype control hIgG1 at 3 ug/ml were incubated with target cells and fresh healthy donor PBMCs at different effector/target ratios for 6 hours, along with indicated doses of vehicle or trametinib in RPMI (Roswell Park Memorial Institute medium) supplemented with 10% fetal bovine serum (FBS). The supernatant was harvested, and the cytotoxicity was measured by a ^51Cr release assay (Perkin Elmer).

JMN [1] = assay: Time course of MEK inhibition and HLA-A / B2M protein, western blot; type: cell-based, human; settings: 50 nM trametinib
Method: FIG. 11: JMN was treated with 50 nM trametinib and lysate was analyzed as in FIG. 4C at different time points.
as §1

Meso34 [2] = assay: ADCC assay (51Cr release) with TCR mimic antibody ESKM after trametinib; type: cell-based, human; settings: 72 hours trametinib, non-cytotoxic dose
Method: as §2, §3

JMN [3] = assay: as above; type: cell-based, human; settings: 72 hours trametinib, non-cytotoxic dose
Method: as §2, §3

JMN [4] = assay: Cell surface HLA-A / HLA-ABC by flow cytometry (BB7, W6/32) after 72 hours; type: cell-based, human
Source text: 1% DMSO was used as a vehicle control. […] Experimental setup was similar to FIG. 2A.

PC9 = assay: Cell surface HLA-A by flow cytometry (BB7) after 72 hours with inhibitor; type: cell-based, human; settings: PC9, activating EGFR mutation (del E746-A750)
[5] = test system: NSCLC cell lines H827, H1975, H1299, A549; assay: Surface HLA-ABC (MHC-I) on panel of NSCLC cell lines; type: cell-based, human; settings: for surface MHC-I: cell lines that had the sensitizing mutation; for sensitivity to up-regulating surface MHC-I: cell lines with downstream activating RAS mutations
Source text: (§4) 1% DMSO was used as a vehicle control. […] Use of ESK antibody to a peptide derived from the oncoprotein WT1 that is presented on HLA-A0201. […] PRAME is a TCRm antibody against an epitope of PRAME tumor antigen presented on HLA-A0201 on SKMEL5. Experimental setup was similar to FIG. 2A. […] FIG. 2D: Use of EGFRi erlotinib and afatanib, along with MEKi trametinib on H827 (EGFR E746del-A750 mutation), H1975 (L858R/T790M), H1299 (EGFR wt, NRAS Q61K), and A549 (EGFR wt/KRAS G12S) to alter surface HLA-ABC levels. Student's t-test was done to compare each treatment to vehicle control. *P values annotated as in FIG. 1E. […] FIG. 2F: H1299 cells were transduced with retroviral vectors expressing EGFR L858R and were analyzed for surface pan HLA-ABC using W6/32. […] The NRAS Q61K mutation was introduced into H827 and cells were treated with EGFRi or MEKi as done in FIG. 2G.
(§5) Small molecule inhibitor studies: Compounds were obtained from SelleckChem (Houston, Tx. USA). Drugs were used at sub-cytostatic doses by titration using the Cell Titer Glo assay (Promega). All drugs were used in vitro at indicated doses in 1% dimethyl sulfoxide (DMSO).
The mechanism by which the MAP kinase pathway suppresses levels of HLA-A is unknown. Given that many cancers have activating mutations in specific genes in the MAP kinase pathway, inhibition of the identified hits was investigated in cell lines harboring mutations in EGFR, or downstream in Ras. A panel of NSCLC cell lines with activating mutations in EGFR, such as the delE746-A750 in H827, or L858R/T790M mutation in H1975, was utilized. The delE746-A750 confers sensitivity to erlotinib, whereas the T790M confers resistance to erlotinib and other first generation EGFR inhibitors, but is sensitive to afatanib (Cross et al., 2014, Cancer Discov 4(9):1046-61). EGFR wild type NSCLC lines with downstream mutations, such as activating NRAS Q61K in H1299 or KRAS G12S in A549, were also utilized.

Meso34 [6] = assay: Cell surface HLA-A by flow cytometry (BB7) after 72 hours with inhibitor; type: cell-based, human; settings: Meso34 without an EGFR mutation, same dose
H827 = settings: similar level of suppression of pERK
Source text: as §4, §5

HLA-A and B2M protein = settings: erlotinib (EGFRi), 72 hours
Source text: The HLA-A and B2M promoter was cloned upstream of the Gaussian Luciferase (GLuc) gene. Secreted embryonic alkaline phosphatase (SEAP) under the CMV promoter was used as a normalization factor.

For `CC(=O)Nc1cccc(-n2c(=O)n(C3CC3)c(=O)c3c(Nc4ccc(I)cc4F)n(C)c(=O)c(C)c32)c1` [trametinib], which “dose to which cells were sensitive (pERK inhibition)” value (pERK) is on record?
The value was “less than 10 nM”.

What about the “increased cytotoxicity of Pr20m mAb (ADCC)” value (SK-MEL-5) of the same compound?
The value was “also observed”.

And the “time of maximal increases of HLA-A and B2M” value (JMN [1])?
Its value is 72 h.

What about the “time of maximal inhibition of MEK” value (JMN [1]) of the same compound?
The value was 3 h.

And the “cytotoxicity of ESKM (ADCC)” value (Meso34 [2])?
Its value is “increased”.

What about the “cytotoxicity of ESKM (ADCC)” value (JMN [3]) of the same compound?
The value was “increased”.

For “EGF: epidermal growth factor, EGF protein that turns on EGFR (NSDSECPLSHDGYCLHDGVCMYIEALDKYACNCVVGYIGERCQYRDLKWWELR; Epidermal growth factor; UniProt P01133 971-1023, looked up)”, which “surface HLA-A” value (JMN [4]; 10 nM EGF for 72 hours) is on record?
Its value is “suppressed”.

And the “surface HLA-A,B,C” value (JMN [4]; 10 nM EGF for 72 hours)?
The value was “suppressed”.

For `CN(C)C/C=C/C(=O)Nc1cc2c(Nc3ccc(F)c(Cl)c3)ncnc2cc1O[C@H]1CCOC1` [afatanib], which HLA-A up-regulation response (PC9) is on record?
Its HLA-A up-regulation response is “responded”.

What about the “surface MHC-I” value [5] of the same compound?
The value was “up-regulated”.

And the “sensitivity to up-regulating surface MHC-I” value [5]?
The value was “not observed”.

What about the HLA-A up-regulation response (JMN [4]; 72 hours, BB7 binding) of the same compound?
Its HLA-A up-regulation response is “responded”.

And the HLA-A up-regulation response (Meso34 [6])?
Its HLA-A up-regulation response is “did not respond”.

What does the source list for `C#Cc1cccc(Nc2ncnc3cc(OCCOC)c(OCCOC)cc23)c1` [erlotinib]?
surface MHC-I [5]: up-regulated; sensitivity to up-regulating surface MHC-I [5]: not observed; surface MHC-I response compared with MEKi by trametinib (H827): responded more strongly; HLA-A and B2M protein (HLA-A and B2M protein): dose dependent increase
